≈ marks a conversion by molar mass, not a printed value. Where two headings read alike, the source gives them in different places. Where a SMILES comes first, the peptide text is derived from it. Where no end group is shown, it is not given here. The star is where a group is joined. Octanoyl = CCCCCCCC(=O)*
Assays:
[1] = test system: P. aeruginosa strain ATCC 27853; format: cell-based
Procedure, shortened: (§1)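 Broth microdilution per NCCLS M7-T2: final peptide levels 0.25 to 256 μg/ml (twofold steps), inoculum 1-5×10^5 CFUs/ml in full-strength Mueller Hinton broth. MIC read as lowest concentration leaving the well clear after 16-20 hours at 37° C.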

[2] = test system: E. coli ATCC strain 25922; test: Minimal Inhibitory Concentration, microtiter broth dilution; format: cell-based; conditions: for MIC E. coli ATCC 25922: ATCC strain 25922; for Minimal Inhibitory Concentration E: E. coli ATCC strain 25922, Table I
Procedure, shortened: as §1

S. aureus ATCC 29213 = format: cell-based; conditions: ATCC 29213
[3] = test system: S.aureus strain ATCC 25923; test: Minimal Inhibitory Concentration, microtiter broth dilution; format: cell-based; conditions: Mueller Hinton broth, 16-20 hours at 37° C.
Description: Table I, which follows, indicates the Minimal Inhibitory Concentration (MIC) in […] of various peptides against S.aureus strain ATCC 25923(S), P. aeruginosa strain ATCC 27853(P), E. coli ATCC strain 25922(E), and C. 4albicans (CA). […] The peptides are unsubstituted at the N-terminal; substituted with an acetyl group at the N-terminal, as indicated by Ac-; substituted with an octanoyl group at the N-terminal, as indicated by Oct-; substituted with spinogosine, as indicated by Sph-; substituted with a succinyl group, as indicated by Suc-; substituted with a hexanoyl group, as indicated by Hex-; substituted with a heptanoyl group, as indicated by Hep-; substituted with a valeryl group, as indicated by Val-; substituted with a myristryl group, as indicated by Myr-; or substituted with an ibuprofyl group, as indicated by Ibu-;
The procedure for the anti-bacterial assay is based upon the guidelines of the National Committee for Clinical Laboratory Standards, Document M7-T2, Volume 8, No. 8, 1988, which document is entirely incorporated herein by reference.
Stock solutions of peptides, with and without the appropriate substitutions, were prepared at a concentration of 512 μg/ml in sterile deionized distilled water and stored at −70° C.
The stock peptide solution was diluted in serial dilutions (1:2) down the wells of a microtiter plate so that the final concentrations of peptides in the wells were 0.25, 0.50, 1, 2, 4, 8, 16, 32, 64, 128 and 256 μg/ml. 1-5×10^5 CFUs/ml of either S. aureus ATCC 25923, E. coli ATCC 25922, P. aeruginosa ATCC 27853, or C. albicans, were added to the wells in full strength Mueller Hinton broth (BBL 11443) from a mid-log culture. The inoculum was standardized spectrophotometrically at 600 nm and was verified by colony counts. The plates were incubated for 16-20 hours at 37° C., and the minimal inhibitory concentration (MIC) for each peptide was determined. Minimal inhibitory concentration is defined as the lowest concentration of peptide which produces a clear well in the microtiter plate. The minimal inhibitory concentration of each of the peptides with and/or without the appropriate substitutions is given in Table I below.

C. albicans = format: cell-based
Procedure, shortened: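 Broth microdilution: mid-log organisms at 1-5×10^5 CFU/ml in Mueller Hinton broth exposed to 2-fold peptide series (0.25–256 μg/ml final). After 16-20 h at 37° C, MIC read as the lowest concentration leaving the well clear.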

S. mutans = test: anaerobic anti-microbial susceptibility test (MIC); format: cell-based; design: unit not given here; conditions: 24-48 hours
A. viscosus = test: anaerobic anti-microbial susceptibility test (MIC); format: cell-based; conditions: 24-48 hours
P. gingivalis = conditions: anaerobic, 24-48 hours
[4] = MTD of repeat-dose intraperitoneal administration; format: in vivo, SCID mice; conditions: 135 mg/kg/week, three injections per week i.p.
Experimental: Determinations of a maximal tolerated dose (MTD) of repeat-dose intraperitoneal (i.p.) administration of MSI-344 or MSI-1857 in 60 SCID mice were done. Mice were injected with various doses of MSI-344 or MSI-1857 twice or thrice per week. Survival and body weight were monitored. On a twice per week dosing schedule, the MTDs of MSI-344 and MSI-1857 were 12 and 134 mg/kg/week, respectively. […] On a thrice per week dosing schedule, no deaths occurred in any groups, with high dose groups of MSI-344 and MSI-1857 receiving 90 mg/kg/week and […], respectively. A transient body weight loss was seen after initial dosing in most MSI-344 and MSI-1857 groups. No body weight loss greater than 6% occurred in any group on the thrice per week dosing schedule.
To determine estimates of MTDs of MSI-344 and MSI-1857 when administered intraperitoneally on repeat-dose regimens in SCID mice. The selection of SCID mice was based on the future plans of using this strain as host for xenograft human tumor efficacy models, and a pre-requisite for determining MTD for chronic administration that may be used during the efficacy model.
SCID mice are immunocompromised and therefore they were housed and handled in sterile environments. They had access to sterile water and sterilized chow ad lib.
A 1 mg/mL solution of MSI-344 was made in saline (0.9% sodium chloride injection USP, Abbott, North Chicago, Ill.) corrected for peptide content. Solutions of MSI-344 at concentrations of 0.6, 0.3, and 0.1 mg/mL were made by diluting the 1 mg/mL solution using saline as diluent. A 10 mg/mL solution of MSI-1857 was made in saline.
Solutions of MSI-1857 at concentrations of 6.7, 3.3, 3, 2, and 1 mg/mL were made by diluting the 10 mg/mL solution using saline as diluent.
Mice (four mice per dose group) were intraperitoneally administered MSI-344 or MSI-1857 using an injection volume of 10 mL/kg of the appropriate solution concentration on a twice per week (Groups 1 through 7) or thrice per week (Groups 8 through 15) dosing schedule every week for 20 weeks. Survival was monitored daily and body weights were recorded three times per week An interim analysis was performed at 3 weeks and the results of this interim analysis is presented in the present report.

[5] = P. aeruginosa strain ATCC 27853, Table I

CC[C@H](C)[C@H](NC(=O)CNCS(=O)(=O)O)C(=O)NCC(=O)N[C@@H](CCCCNCS(=O)(=O)O)C(=O)N[C@@H](Cc1ccccc1)C(=O)N[C@@H](CC(C)C)C(=O)N[C@@H](CCCCNCS(=O)(=O)O)C(=O)N[C@@H](CCCCNCS(=O)(=O)O)C(=O)N[C@@H](C)C(=O)N[C@@H](CCCCNCS(=O)(=O)O)C(=O)N[C@@H](CCCCNCS(=O)(=O)O)C(=O)N[C@@H](Cc1ccccc1)C(=O)NCC(=O)N[C@@H](CCCCNCS(=O)(=O)O)C(=O)N[C@@H](C)C(=O)N[C@@H](Cc1ccccc1)C(=O)N[C@H](C(=O)N[C@@H](CCCCNCS(=O)(=O)O)C(=O)N[C@H](C(=O)N[C@@H](CCSC)C(=O)N[C@@H](CCCCNCS(=O)(=O)O)C(=O)N[C@@H](CCCCNCS(=O)(=O)O)C(N)=O)[C@@H](C)CC)C(C)C
MIC P. aeruginosa ATCC 27853 ([1]; ATCC 27853): 64 µg/mL (≈ 18.6 µM)
MIC E. coli ATCC 25922 [2]: 128 µg/mL (≈ 37.3 µM)
MIC S. aureus ATCC 29213 (S. aureus ATCC 29213): 64 µg/mL (≈ 18.6 µM)

CCCCCCCC(=O)N[C@@H](CCCCN)C(=O)N[C@H](C(=O)N[C@@H](C)C(=O)N[C@@H](CCCCN)C(=O)N[C@@H](CCCCN)C(=O)N[C@H](C(=O)N[C@@H](C)C(=O)N[C@@H](CCCCN)C(=O)N[C@H](C(=O)N[C@@H](C)C(=O)N[C@@H](CCCCN)C(=O)N[C@@H](CCCCN)C(=O)N[C@H](C(=O)N[C@@H](C)C(=O)N[C@@H](CCCCN)C(=O)N[C@H](C(=O)N[C@@H](C)C(=O)N[C@@H](CCCCN)C(=O)N[C@@H](CCCCN)C(=O)N[C@H](C(=O)N[C@@H](C)C(=O)O)[C@@H](C)CC)[C@@H](C)CC)[C@@H](C)CC)[C@@H](C)CC)[C@@H](C)CC)[C@@H](C)CC [Oct-(SEQ ID NO: 86)-OH] (Octanoyl-KIAKKIAKIAKKIAKIAKKIA-OH)
Minimal Inhibitory Concentration S [3]: 8 µg/mL
Minimal Inhibitory Concentration P [1, 5]: 4 µg/mL
Minimal Inhibitory Concentration E [2]: 2 µg/mL
Minimal Inhibitory Concentration CA (C. albicans; C. albicans, Table I): 128 µg/mL
MIC S. mutans (S. mutans): 16
MIC A. viscos (A. viscosus): 32 μl/ml
MIC P. gingivalis (strain) 9-14K-1 (P. gingivalis): 1 μl/ml
MIC P. gingivalis (strain) 381 (P. gingivalis): 1 μl/ml
MIC P. gingivalis (strain) 450 (P. gingivalis): 1 μl/ml
MIC P. gingivalis (strain) A7A1-28 (P. gingivalis): 1 μl/ml
MIC P. gingivalis (strain) FAY-19M-1 (P. gingivalis): 1 μl/ml

CCCCCCCC(=O)N[C@@H](CCCCN)C(=O)N[C@@H](CCCCN)C(=O)N[C@@H](CC(C)C)C(=O)N[C@@H](C)C(=O)N[C@@H](CCCCN)C(=O)N[C@@H](CC(C)C)C(=O)N[C@@H](C)C(=O)N[C@@H](CCCCN)C(=O)N[C@@H](CCCCN)C(=O)N[C@@H](CC(C)C)C(=O)N[C@@H](C)C(N)=O [Oct-(SEQ ID NO: 123)-NH2] (Octanoyl-KKLAKLAKKLA-NH2)
Minimal Inhibitory Concentration S [3]: 32 µg/mL
Minimal Inhibitory Concentration P [1, 5]: 16 µg/mL
Minimal Inhibitory Concentration E [2]: 32 µg/mL
Minimal Inhibitory Concentration CA (C. albicans; C. albicans, Table I): 32 µg/mL

CCCCCCCC(=O)N[C@@H](CCCCN)C(=O)N[C@@H](CC(C)C)C(=O)N[C@@H](C)C(=O)N[C@@H](CCCCN)C(=O)N[C@@H](CC(C)C)C(=O)N[C@@H](C)C(=O)N[C@@H](CCCCN)C(=O)N[C@@H](CCCCN)C(=O)N[C@@H](CC(C)C)C(=O)N[C@@H](C)C(N)=O [Oct-(SEQ ID NO: 124)-NH2] (Octanoyl-KLAKLAKKLA-NH2)
Minimal Inhibitory Concentration S [3]: 128 µg/mL
Minimal Inhibitory Concentration P [1, 5]: 64 µg/mL
Minimal Inhibitory Concentration E [2]: 256 µg/mL
Minimal Inhibitory Concentration CA (C. albicans; C. albicans, Table I): 128 µg/mL

CCCCCCCC(=O)N[C@@H](CCCCN)C(=O)N[C@@H](Cc1c[nH]c2ccccc12)C(=O)N[C@@H](CCCCN)C(=O)N[C@@H](CC(C)C)C(=O)N[C@@H](Cc1ccccc1)C(=O)N[C@@H](CCCCN)C(=O)N[C@@H](CCCCN)C(=O)N[C@H](C(=O)N[C@@H](CCC(=O)O)C(=O)N[C@@H](CCCCN)C(=O)N[C@H](C(N)=O)C(C)C)[C@@H](C)CC [Oct-(SEQ ID NO: 136)-NH2] (Octanoyl-KWKLFKKIEKV-NH2)
Minimal Inhibitory Concentration S [3]: 256 µg/mL
Minimal Inhibitory Concentration P ([1]; ATCC 27853): 64 µg/mL
Minimal Inhibitory Concentration E [2]: 256 µg/mL
Minimal Inhibitory Concentration CA (C. albicans): 256 µg/mL

CCCCCCCC(=O)N[C@@H](CCCCN)C(=O)N[C@H](C(=O)N[C@@H](C)C(=O)N[C@@H](CCCCN)C(=O)N[C@@H](CCCCN)C(=O)N[C@H](C(=O)N[C@@H](C)C(=O)N[C@@H](CCCCN)C(=O)N[C@H](C(=O)N[C@@H](C)C(=O)N[C@@H](CCCCN)C(=O)N[C@@H](CCCCN)C(=O)N[C@H](C(=O)N[C@@H](C)C(N)=O)[C@@H](C)CC)[C@@H](C)CC)[C@@H](C)CC)[C@@H](C)CC [Oct-(SEQ ID NO: 153)-NH2] (Octanoyl-KIAKKIAKIAKKIA-NH2)
Minimal Inhibitory Concentration S [3]: 8 µg/mL
Minimal Inhibitory Concentration P [1, 5]: 8 µg/mL
Minimal Inhibitory Concentration E [2]: 32 µg/mL
Minimal Inhibitory Concentration CA (C. albicans; C. albicans, Table I): 64 µg/mL

O=S([O-])S(=O)(=O)[O-].[Na+].[Na+] [Sodium metabisulfite, reference compound]
lethality [4]: no lethality

GIGKFLKKAKKFGKAFVKIMKK-NH2 [SEQ ID NO: 155-NH2]
MIC P. aeruginosa ATCC 27853 ([1]; ATCC 27853): 32 µg/mL
MIC E. coli ATCC 25922 [2]: 16 µg/mL
MIC S. aureus ATCC 29213 (S. aureus ATCC 29213): 16 µg/mL

H-KIAKKIAKIAKKIAKIAKKIA-OH [(SEQ ID NO: 86)-OH, (Lys Ile Ala Lys Lys Ile Ala)3]
Minimal Inhibitory Concentration S [3]: 128 µg/mL
Minimal Inhibitory Concentration P [1, 5]: 32 µg/mL
Minimal Inhibitory Concentration E [2]: 2 µg/mL
Minimal Inhibitory Concentration CA (C. albicans; C. albicans, Table I): 256 µg/mL
MIC S. mutans (S. mutans): 16
MIC A. viscos (A. viscosus): 32 μl/ml
MIC P. gingivalis (strain) 9-14K-1 (P. gingivalis): 16 μl/ml
MIC P. gingivalis (strain) 381 (P. gingivalis): 16 μl/ml
MIC P. gingivalis (strain) 450 (P. gingivalis): 4 μl/ml
MIC P. gingivalis (strain) A7A1-28 (P. gingivalis): 4 μl/ml
MIC P. gingivalis (strain) FAY-19M-1 (P. gingivalis): 8 μl/ml

Reference: patent publication US6348445B1, “Biologically active peptides with reduced toxicity in animals and a method for preparing same” (priority 1992, dated 2002)
